In test [1] the target is 26S proteasome non-ATPase regulatory subunit 14 (Homo sapiens, UniProt O00487). Nature of the test: inhibition of proteasome subunit RPN11 – biochemical, fluorescence polarization, uHTS hits, confirmation (AID 602368). It is filed as functional. For orientation: Polarisation of emitted light reports the rotation of a fluorescent probe.
The next test addresses Prothrombin (Bos taurus, UniProt P00735). Description: thrombin inhibition, dose response, biochemical, fluorescence polarization, uHTS hits (AID 602369). The test is classed as functional.
Test [2] deals with 72 kDa type IV collagenase (Homo sapiens, UniProt P08253). Nature of the test: Dose Response validation of uHTS RPN11 inhibitor hits using a MMP-2 Fluorescence assay. The test is classed as functional.
Chain of 72 kDa type IV collagenase (P08253 whole entry): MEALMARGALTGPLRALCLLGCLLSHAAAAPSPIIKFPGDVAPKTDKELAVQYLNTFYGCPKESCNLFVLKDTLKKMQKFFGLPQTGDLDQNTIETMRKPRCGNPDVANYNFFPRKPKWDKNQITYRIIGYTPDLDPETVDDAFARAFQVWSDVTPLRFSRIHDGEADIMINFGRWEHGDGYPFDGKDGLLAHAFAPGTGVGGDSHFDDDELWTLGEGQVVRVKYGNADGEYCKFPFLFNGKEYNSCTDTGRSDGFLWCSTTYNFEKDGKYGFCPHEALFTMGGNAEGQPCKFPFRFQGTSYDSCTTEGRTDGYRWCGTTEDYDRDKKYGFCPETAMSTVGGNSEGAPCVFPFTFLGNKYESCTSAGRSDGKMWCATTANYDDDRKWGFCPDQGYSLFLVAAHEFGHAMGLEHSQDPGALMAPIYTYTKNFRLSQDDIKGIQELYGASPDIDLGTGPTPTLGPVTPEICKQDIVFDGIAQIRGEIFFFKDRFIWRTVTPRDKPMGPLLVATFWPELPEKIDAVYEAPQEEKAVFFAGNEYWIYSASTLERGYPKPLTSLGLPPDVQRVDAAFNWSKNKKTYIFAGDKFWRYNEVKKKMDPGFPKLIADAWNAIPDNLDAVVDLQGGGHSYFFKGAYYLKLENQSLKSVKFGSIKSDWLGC
For the next test, the target named is T1, Cytochrome P450 1A2 (Homo sapiens, UniProt P05177).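 Also: PubChem cytochrome P450 panel assay, CYP1A2 panel member.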
T1 sequence (P05177 whole entry): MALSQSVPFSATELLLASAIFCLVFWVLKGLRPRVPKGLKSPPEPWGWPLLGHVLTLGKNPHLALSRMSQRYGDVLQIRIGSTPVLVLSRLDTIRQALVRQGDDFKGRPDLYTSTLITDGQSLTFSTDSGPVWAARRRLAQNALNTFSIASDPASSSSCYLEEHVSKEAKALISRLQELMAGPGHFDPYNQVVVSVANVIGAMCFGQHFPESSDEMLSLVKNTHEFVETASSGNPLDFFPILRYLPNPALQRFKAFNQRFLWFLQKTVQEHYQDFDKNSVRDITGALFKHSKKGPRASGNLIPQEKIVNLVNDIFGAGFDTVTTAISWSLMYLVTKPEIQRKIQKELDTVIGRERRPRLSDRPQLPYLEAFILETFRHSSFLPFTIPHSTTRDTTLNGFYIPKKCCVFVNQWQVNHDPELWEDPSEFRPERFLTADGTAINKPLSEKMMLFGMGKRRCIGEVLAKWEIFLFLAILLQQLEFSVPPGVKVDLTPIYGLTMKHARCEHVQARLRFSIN

The target in test [3] is T2, Adenosylmethionine-8-amino-7-oxononanoate aminotransferase (Mycobacterium tuberculosis, UniProt P9WQ81).
T2 sequence (P9WQ81 whole entry): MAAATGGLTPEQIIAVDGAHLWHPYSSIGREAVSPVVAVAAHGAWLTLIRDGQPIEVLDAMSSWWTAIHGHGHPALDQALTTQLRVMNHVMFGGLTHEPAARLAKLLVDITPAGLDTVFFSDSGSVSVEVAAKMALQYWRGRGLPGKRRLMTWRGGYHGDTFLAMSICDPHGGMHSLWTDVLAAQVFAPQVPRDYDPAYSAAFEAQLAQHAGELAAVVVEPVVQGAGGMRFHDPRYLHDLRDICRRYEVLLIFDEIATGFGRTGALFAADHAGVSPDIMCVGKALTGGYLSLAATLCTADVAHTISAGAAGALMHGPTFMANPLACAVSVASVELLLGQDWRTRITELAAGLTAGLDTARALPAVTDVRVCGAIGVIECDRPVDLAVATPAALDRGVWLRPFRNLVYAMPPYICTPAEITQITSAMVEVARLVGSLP
Nature of the test: Mycobacterium tuberculosis BioA enzyme inhibitor Measured in Biochemical System Using Plate Reader - 2163-02_Inhibitor_Dose_CherryPick_Activity. The test is classed as functional, Mycobacterium tuberculosis UT205.

The target in another test is Large T antigen (Simian virus 40, UniProt P03070). It is filed as functional, Betapolyomavirus macacae.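 Also: Confirmatory-stage PubChem screen for compounds that inhibit SV40 T antigen.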
Chain of Large T antigen (P03070 whole entry): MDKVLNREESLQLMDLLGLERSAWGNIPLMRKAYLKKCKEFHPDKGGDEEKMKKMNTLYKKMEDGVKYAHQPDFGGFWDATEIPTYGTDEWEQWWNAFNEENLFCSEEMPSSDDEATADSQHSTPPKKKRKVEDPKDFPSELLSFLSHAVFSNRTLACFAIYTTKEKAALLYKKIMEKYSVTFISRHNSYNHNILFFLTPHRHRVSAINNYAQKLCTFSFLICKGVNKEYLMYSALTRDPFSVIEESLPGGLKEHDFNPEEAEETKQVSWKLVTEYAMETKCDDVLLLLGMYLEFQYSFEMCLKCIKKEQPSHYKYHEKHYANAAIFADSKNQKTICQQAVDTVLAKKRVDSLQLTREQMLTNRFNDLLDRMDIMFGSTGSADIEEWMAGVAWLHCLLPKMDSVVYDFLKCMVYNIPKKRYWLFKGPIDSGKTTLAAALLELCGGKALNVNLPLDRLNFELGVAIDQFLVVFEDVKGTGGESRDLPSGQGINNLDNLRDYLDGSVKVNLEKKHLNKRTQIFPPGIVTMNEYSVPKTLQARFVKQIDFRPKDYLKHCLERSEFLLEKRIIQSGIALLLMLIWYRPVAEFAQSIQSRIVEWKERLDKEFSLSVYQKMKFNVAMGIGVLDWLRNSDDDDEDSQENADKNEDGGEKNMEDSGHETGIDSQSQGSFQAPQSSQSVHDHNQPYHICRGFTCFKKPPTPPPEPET
For test [4], the target named is T3, Low molecular weight phosphotyrosine protein phosphatase (Homo sapiens, UniProt P24666).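 Also: Dose-response confirmation assay measuring inhibition of LMPTP enzyme activity by fluorescence intensity read-out.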
T3 sequence (P24666 whole entry): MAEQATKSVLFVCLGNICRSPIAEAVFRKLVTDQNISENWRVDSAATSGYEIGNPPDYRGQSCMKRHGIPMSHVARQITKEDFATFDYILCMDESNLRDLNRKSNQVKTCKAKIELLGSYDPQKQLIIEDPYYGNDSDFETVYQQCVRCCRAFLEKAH
The test is classed as functional. The note with it: read-out: IC50_Mean.

The next test deals with Genome polyprotein (dengue virus type 2, UniProt P29990). Nature of the test: Dengue-2 NS5 methyltransferase inhibitors, primary screen, biochemical, confirmation dose response (AID 588689). It is filed as functional.
Chain of Genome polyprotein (P29990 2492-3391 limits assumed): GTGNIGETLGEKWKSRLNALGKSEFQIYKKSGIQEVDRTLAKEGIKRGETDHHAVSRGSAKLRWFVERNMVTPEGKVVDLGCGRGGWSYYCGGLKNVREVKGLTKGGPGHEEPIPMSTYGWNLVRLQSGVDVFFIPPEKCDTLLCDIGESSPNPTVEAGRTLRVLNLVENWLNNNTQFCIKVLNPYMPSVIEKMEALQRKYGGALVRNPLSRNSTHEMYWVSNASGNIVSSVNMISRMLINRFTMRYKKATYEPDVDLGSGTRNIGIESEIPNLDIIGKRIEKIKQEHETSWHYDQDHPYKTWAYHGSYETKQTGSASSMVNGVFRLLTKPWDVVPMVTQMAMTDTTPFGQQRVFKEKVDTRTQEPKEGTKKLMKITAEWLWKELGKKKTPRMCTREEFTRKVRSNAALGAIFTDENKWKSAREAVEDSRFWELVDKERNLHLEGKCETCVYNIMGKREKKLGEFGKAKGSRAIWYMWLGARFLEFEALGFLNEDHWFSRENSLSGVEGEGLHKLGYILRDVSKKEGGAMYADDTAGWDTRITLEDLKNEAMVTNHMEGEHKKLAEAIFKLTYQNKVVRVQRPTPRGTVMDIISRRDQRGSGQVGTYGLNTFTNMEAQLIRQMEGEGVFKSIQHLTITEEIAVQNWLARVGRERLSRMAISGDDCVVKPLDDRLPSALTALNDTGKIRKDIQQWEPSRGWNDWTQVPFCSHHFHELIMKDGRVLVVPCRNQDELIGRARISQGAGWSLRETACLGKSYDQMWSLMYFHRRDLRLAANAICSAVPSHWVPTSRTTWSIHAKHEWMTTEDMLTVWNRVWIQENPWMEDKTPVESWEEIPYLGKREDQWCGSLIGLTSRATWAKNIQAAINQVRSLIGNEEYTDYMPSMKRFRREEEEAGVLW
Test [5] has as its target T4, Long-chain-fatty-acid--AMP ligase FadD28 (Mycobacterium tuberculosis, UniProt P9WQ59).
T4 sequence (P9WQ59 whole entry): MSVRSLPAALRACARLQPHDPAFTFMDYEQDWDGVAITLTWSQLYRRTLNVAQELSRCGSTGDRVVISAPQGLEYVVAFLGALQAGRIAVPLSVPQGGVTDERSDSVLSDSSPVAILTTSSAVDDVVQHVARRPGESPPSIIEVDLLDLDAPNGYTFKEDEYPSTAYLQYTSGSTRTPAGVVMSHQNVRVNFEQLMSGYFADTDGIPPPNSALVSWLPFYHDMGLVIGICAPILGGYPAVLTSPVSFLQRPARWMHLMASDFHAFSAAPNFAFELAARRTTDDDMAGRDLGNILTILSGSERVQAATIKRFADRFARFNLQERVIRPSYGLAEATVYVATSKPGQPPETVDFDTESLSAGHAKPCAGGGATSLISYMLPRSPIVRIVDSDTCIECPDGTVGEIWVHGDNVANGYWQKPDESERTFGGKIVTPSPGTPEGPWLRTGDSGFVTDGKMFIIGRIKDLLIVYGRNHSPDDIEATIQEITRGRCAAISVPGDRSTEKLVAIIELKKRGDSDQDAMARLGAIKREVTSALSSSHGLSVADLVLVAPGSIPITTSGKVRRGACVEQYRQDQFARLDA
Description: Fluorescence polarization aasay to screen for inhibitors that compete for the binding of FadD28 to a bisubstrate Measured in Biochemical System Using Plate Reader - 2147-01_Inhibitor_Dose_CherryPick_Activity. The test is classed as functional, Mycobacterium tuberculosis H37Rv.

Test [6] in a line: Shn3 3'UTR reporter inhibitors, dose response, cell-based, Clone20 osteoblasts, firefly luciferase, cherry-picked (AID 624132).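 Also: firefly luciferase luminescence from reporter carrying the Shn3 3'UTR in osteoblasts.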 It is filed as functional.
The nature of test [7]: HepG2 cell cytotoxicity, dose response, cytotoxicity control for Shn3 inhibitor project, CellTiter-Glo, cherry-picked (AID 624134). It is filed as functional, cell-based. In general terms: In ATP-based viability assays light output follows the ATP content of the culture.
The nature of test [8]: control 3'UTR Renilla luciferase suppression, dose response, counter-screen for Shn3 inhibitor project, cell-based, Clone20-Shn3RL, cherry-picked (AID 624133). It is filed as functional.
A further test addresses Cytochrome P450 2C9 (Homo sapiens, UniProt P11712).
The test system of the next test is INS1. Description: beta cell apoptosis inhibitors, cytokine rescue, dose response, luminescence, retest (AID 449756).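 Also: cell death triggered by IL-1 beta plus TNF-alpha plus IFN-gamma mixture; protective hits raise ATP signal compared with cytokine alone wells.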 It is filed as functional, cell-based. The note with it: Rattus norvegicus.
For the next test, the target named is Cytochrome P450 3A4 (Homo sapiens, UniProt P08684).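 Also: CYP3A4 tested as one member of a cytochrome P450 panel screen.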
Chain of Cytochrome P450 3A4 (P08684 whole entry): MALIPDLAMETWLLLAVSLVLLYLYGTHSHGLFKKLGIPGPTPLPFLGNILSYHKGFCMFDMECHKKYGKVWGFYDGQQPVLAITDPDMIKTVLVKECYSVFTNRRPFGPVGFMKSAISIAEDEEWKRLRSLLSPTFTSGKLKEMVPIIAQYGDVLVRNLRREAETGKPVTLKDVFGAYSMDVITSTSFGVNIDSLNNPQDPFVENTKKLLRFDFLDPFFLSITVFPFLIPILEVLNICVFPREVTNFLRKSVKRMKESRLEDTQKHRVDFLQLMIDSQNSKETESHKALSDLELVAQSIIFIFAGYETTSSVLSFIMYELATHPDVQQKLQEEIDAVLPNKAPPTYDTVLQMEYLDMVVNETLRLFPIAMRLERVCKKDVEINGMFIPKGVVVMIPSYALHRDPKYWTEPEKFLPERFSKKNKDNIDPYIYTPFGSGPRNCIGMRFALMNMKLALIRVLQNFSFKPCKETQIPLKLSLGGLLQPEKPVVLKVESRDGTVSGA
Test [9] is described as follows: inhibitors of intracellular T. cruzi replication, confirmation, NIH3T3 host cells, beta-gal luminescence (AID 2044).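 Also: intracellular parasites grown in NIH/3T3 mouse fibroblasts as host cells; luminescent beta-galactosidase reporter signal from transgenic T. cruzi replicating inside host cells; inhibitors lower the luminescence signal.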 It is filed as functional, cell-based.
Test [10] can be described thus: cytotoxicity toward NIH3T3 fibroblasts, dose response, counter-screen, cell-based, ATP luminescence, mouse fibroblasts (AID 2010).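 Also: cells exposed to compound for about 90 hours before reading.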 The test is classed as functional.

Calls of active or inactive are those of the source.

Chain of 26S proteasome non-ATPase regulatory subunit 14 (O00487 whole entry): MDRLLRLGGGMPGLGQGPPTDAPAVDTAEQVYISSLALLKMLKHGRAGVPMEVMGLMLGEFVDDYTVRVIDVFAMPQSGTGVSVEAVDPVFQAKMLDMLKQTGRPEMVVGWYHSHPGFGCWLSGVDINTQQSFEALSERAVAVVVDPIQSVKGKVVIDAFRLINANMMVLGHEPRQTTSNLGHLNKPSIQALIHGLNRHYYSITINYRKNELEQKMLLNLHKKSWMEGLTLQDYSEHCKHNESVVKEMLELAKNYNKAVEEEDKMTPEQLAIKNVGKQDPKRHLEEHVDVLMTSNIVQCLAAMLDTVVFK
Chain of Cytochrome P450 2C9 (P11712 whole entry): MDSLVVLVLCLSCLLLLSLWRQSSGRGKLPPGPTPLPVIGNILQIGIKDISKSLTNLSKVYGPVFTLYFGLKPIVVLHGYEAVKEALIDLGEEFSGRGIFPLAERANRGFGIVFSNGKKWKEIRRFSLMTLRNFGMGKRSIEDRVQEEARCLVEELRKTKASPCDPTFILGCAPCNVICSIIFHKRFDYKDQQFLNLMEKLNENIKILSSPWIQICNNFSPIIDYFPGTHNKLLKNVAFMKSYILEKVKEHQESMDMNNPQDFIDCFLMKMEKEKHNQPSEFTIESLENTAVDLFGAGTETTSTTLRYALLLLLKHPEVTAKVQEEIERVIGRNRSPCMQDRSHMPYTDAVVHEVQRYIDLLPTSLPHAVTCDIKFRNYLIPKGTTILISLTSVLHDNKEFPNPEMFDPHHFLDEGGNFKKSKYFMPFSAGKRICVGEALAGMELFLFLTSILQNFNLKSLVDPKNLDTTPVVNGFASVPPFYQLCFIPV

Consider `Cc1sc2nc(CSCC(=O)Nc3ccccc3C#N)[nH]c(=O)c2c1C`, for which the IC50 is 6.2 µM (active) in test [1], 8.26 µM (active) at Prothrombin and > 100 µM (inactive) in test [2].

As to `CCCc1c(OCCCOc2ccc(OCC(=O)O)cc2)ccc(C(C)=O)c1O`, the AC50 (as a rule, the concentration at which the activity in the assay is half-maximal) on Cytochrome P450 1A2 is 31.6 µM (inconclusive); in [3] it was 2.54 µM (active).

With `Cc1cccc2sc(NC(=O)C3CCCN(S(=O)(=O)c4cccc5nonc45)C3)nc12` (centres undefined), the figures for the IC50 (in test [1]; at Prothrombin; in [2]) were 25.9 µM (active), 26.2 µM (active) and > 100 µM (inactive), respectively.

On to `Nc1ccc2[nH]c(CCCCCCc3nc4cc(N)ccc4[nH]3)nc2c1`, for which the IC50 on Large T antigen is 5.49 µM (active); in test [4], 20.8 µM (inactive).

In the case of `O=C(CSc1nc2c(c(=O)n1-c1ccccc1)SCC2)N1CCOCC1`, the AC50 in test [3] was 2.62 µM (active).

As for `Cc1ccc(S(=O)(=O)N2[C@@H](c3cccc(Cl)c3)C(C(=O)O)=CC[C@H]2c2cccc(Cl)c2)cc1`, the IC50 on Genome polyprotein was 48.3 µM (active). The AC50 in [5] is 24.9 µM (active).

With `O=C(CC1OC(=O)c2ccccc21)Nc1cc(Cl)ccc1N1CCCC1` (centres undefined), the IC50 was 14.1 µM (active) in test [1], > 100 µM (inactive) on Prothrombin and > 100 µM (inactive) in [2].

`CN1c2ccc(-c3cccc(C#N)c3)cc2[C@H]2[C@H](CCN2C(=O)CC2CC2)[C@H]1CO`: in [3], the AC50 is 3.56 µM (active).

In the case of `Cc1cc2c(cc(C(=O)OC(C(=O)NC3CCCCC3)C(C)C)n2C)o1` (centres undefined), the results for the AC50 in test [6], in [7] and in test [8] were 5.9 µM (active), 55.8 µM (active) and 7.23 µM (active), respectively.

In the case of `O=C(Nc1ccc(-c2nc3ccccc3o2)cc1)c1ccc(N2CCOCC2)c([N+](=O)[O-])c1`, the concentration at half-maximal activity (AC50) was 3.35 µM (active) in test [6]; 2.82 µM (inconclusive) on Cytochrome P450 2C9; 5.18 µM (active) with INS1; 11.2 µM (inconclusive) on Cytochrome P450 3A4; > 70 µM (inactive) in [7]; 3.62 µM (active) in test [8]. Also, the EC50 (as a rule, the concentration needed to bring the measured effect to its halfway point) in [9] was 1.93 µM (active); in test [10] it was > 60 µM (not active).

Turning to `Cc1ccccc1S(=O)(=O)NCC[C@H]1CC[C@@H](NC(=O)Nc2cccc(F)c2)[C@H](CO)O1`, in test [3], the AC50 was 11.3 µM (active).

The values are drawn from ChEMBL document CHEMBL1201862, “PubChem BioAssay data set” (2004).
